Measured values taken from patent US9108944B2, “Androgen receptor modulators and uses thereof” (ARAGON PHARMACEUTICALS, INC., priority 2010, dated 2015).

How the values were obtained:
[1] = target: T1, AR-VP16 (Homo sapiens, UniProt P10275); experiment: AR-VP16 DNA Binding Assay, antagonist mode (HepG2 cells, 0.1 nM R1881); type: cell-based
T1 sequence (P10275 560-920 limits assumed): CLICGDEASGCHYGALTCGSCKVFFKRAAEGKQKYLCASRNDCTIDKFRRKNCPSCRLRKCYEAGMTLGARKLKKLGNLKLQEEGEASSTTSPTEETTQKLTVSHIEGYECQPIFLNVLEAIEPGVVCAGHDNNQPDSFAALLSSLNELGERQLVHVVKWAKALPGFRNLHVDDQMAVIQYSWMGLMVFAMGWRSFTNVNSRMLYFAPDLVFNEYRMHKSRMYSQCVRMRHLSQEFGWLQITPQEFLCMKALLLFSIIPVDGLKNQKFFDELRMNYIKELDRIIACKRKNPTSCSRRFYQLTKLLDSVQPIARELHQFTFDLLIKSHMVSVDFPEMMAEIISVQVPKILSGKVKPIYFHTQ
Procedure, shortened: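 HepG2 cells transiently transfected with AR-VP16 (Lipofectin), incubated overnight, then treated with compound in RPMI with charcoal-stripped serum. Antagonist mode adds R1881 at 0.1 nM final. Cells lysed after 48 h incubation for read-out.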

[2] = target: T1, AR-VP16; experiment: AR-VP16 DNA Binding Assay, agonist mode (HepG2 cells); type: cell-based; settings: Emax >20x DMSO control = agonist

Structure (SMILES) | IC50 [1] | ARVP16 DNA Binding Assay (Agonist mode): Agonist? [2]
N#Cc1ncc(N2C(=O)C3(CCC3)N(c3ccc(OCCCCSCCCC(F)(F)C(F)(F)F)c(F)c3)C2=S)cc1C(F)(F)F [Compound 151, 5-(5-(3-Fluoro-4-(4-((4,4,5,5,5-pentafluoropentyl)thio)butoxy)phenyl)-8-oxo-6-thioxo-5,7-diazaspiro[3.4]octan-7-yl)-3-(trifluoromethyl)picolinonitrile] | > 1000 nM | No (Agonist defined as a compound whose Emax in the ARVP16 DNA Binding Assay (Agonist mode) is >20x DMSO control)
N#Cc1ncc(N2C(=O)C3(CCC3)N(c3ccc(OCCCC[S+]([O-])CCCC(F)(F)C(F)(F)F)c(F)c3)C2=S)cc1C(F)(F)F (centres unmarked) [Compound 152, 5-(5-(3-Fluoro-4-(4-((4,4,5,5,5-pentafluoropentyl)sulfinyl)butoxy)phenyl)-8-oxo-6-thioxo-5,7-diazaspiro[3.4]octan-7-yl)-3-(trifluoromethyl)picolinonitrile] | < 1000 nM | No (Agonist defined as a compound whose Emax in the ARVP16 DNA Binding Assay (Agonist mode) is >20x DMSO control)
N#Cc1ncc(N2C(=O)C3(CCC3)N(c3ccc(OCCCSCCCC(F)(F)C(F)(F)F)c(F)c3)C2=S)cc1C(F)(F)F [Compound 153, 5-(5-(3-Fluoro-4-(3-((4,4,5,5,5-pentafluoropentyl)thio)propoxy)phenyl)-8-oxo-6-thioxo-5,7-diazaspiro[3.4]octan-7-yl)-3-(trifluoromethyl)picolinonitrile] | < 1000 nM | No (Agonist defined as a compound whose Emax in the ARVP16 DNA Binding Assay (Agonist mode) is >20x DMSO control)
N#Cc1ncc(N2C(=O)C3(CCC3)N(c3ccc(OCCC[S+]([O-])CCCC(F)(F)C(F)(F)F)c(F)c3)C2=S)cc1C(F)(F)F (centres unmarked) [Compound 154, 5-(5-(3-Fluoro-4-(3-((4,4,5,5,5-pentafluoropentyl)sulfinyl)propoxy)phenyl)-8-oxo-6-thioxo-5,7-diazaspiro[3.4]octan-7-yl)-3-(trifluoromethyl)picolinonitrile] | < 1000 nM | No (Agonist defined as a compound whose Emax in the ARVP16 DNA Binding Assay (Agonist mode) is >20x DMSO control)
O=C1N(c2ccc3nnc(C(F)(F)F)n3n2)C(=S)N(c2ccc(OCCc3ccccn3)cc2)C12CCC2 [Compound 155, 5-(4-(2-(Pyridin-2-yl)ethoxy)phenyl)-6-thioxo-7-(3-(trifluoromethyl)-[1,2,4]triazolo[4,3-b]pyridazin-6-yl)-5,7-diazaspiro[3.4]octan-8-one] | > 1000 nM | No (Agonist defined as a compound whose Emax in the ARVP16 DNA Binding Assay (Agonist mode) is >20x DMSO control)
N#Cc1ncc(N2C(=O)C3(CCC3)N(c3ccc(F)c(OCCc4ccccn4)c3)C2=S)cc1C(F)(F)F [Compound 158, 5-(5-(4-Fluoro-3-(2-(pyridin-2-yl)ethoxy)phenyl)-8-oxo-6-thioxo-5,7-diazaspiro[3.4]octan-7-yl)-3-(trifluoromethyl)picolinonitrile] | > 1000 nM | No (Agonist defined as a compound whose Emax in the ARVP16 DNA Binding Assay (Agonist mode) is >20x DMSO control)
N#Cc1ncc(N2C(=O)C3(CCC3)N(c3ccc(F)c(OCCc4cccnc4)c3)C2=S)cc1C(F)(F)F [Compound 159, 5-(5-(4-Fluoro-3-(2-(pyridin-3-yl)ethoxy)phenyl)-8-oxo-6-thioxo-5,7-diazaspiro[3.4]octan-7-yl)-3-(trifluoromethyl)picolinonitrile] | > 1000 nM | No (Agonist defined as a compound whose Emax in the ARVP16 DNA Binding Assay (Agonist mode) is >20x DMSO control)
N#Cc1ncc(N2C(=O)C3(CCC3)N(c3ccc(F)c(OCCc4ccncc4)c3)C2=S)cc1C(F)(F)F [Compound 160, 5-(5-(4-Fluoro-3-(2-(pyridin-4-yl)ethoxy)phenyl)-8-oxo-6-thioxo-5,7-diazaspiro[3.4]octan-7-yl)-3-(trifluoromethyl)picolinonitrile] | > 1000 nM | No (Agonist defined as a compound whose Emax in the ARVP16 DNA Binding Assay (Agonist mode) is >20x DMSO control)
N#Cc1ncc(N2C(=O)C3(CCC3)N(c3ccc(F)c(OCc4ccccc4)c3)C2=S)cc1C(F)(F)F [Compound 161, 5-(5-(3-(Benzyloxy)-4-fluorophenyl)-8-oxo-6-thioxo-5,7-diazaspiro[3.4]octan-7-yl)-3-(trifluoromethyl)picolinonitrile] | > 1000 nM | No (Agonist defined as a compound whose Emax in the ARVP16 DNA Binding Assay (Agonist mode) is >20x DMSO control)
N#Cc1ncc(N2C(=O)C3(CCC3)N(c3ccc(F)c(OCCc4ccccc4)c3)C2=S)cc1C(F)(F)F [Compound 162, 5-(5-(4-Fluoro-3-phenethoxyphenyl)-8-oxo-6-thioxo-5,7-diazaspiro[3.4]octan-7-yl)-3-(trifluoromethyl)picolinonitrile] | > 1000 nM | No (Agonist defined as a compound whose Emax in the ARVP16 DNA Binding Assay (Agonist mode) is >20x DMSO control)
N#Cc1ncc(N2C(=O)C3(CCC3)N(c3ccc(F)c(OCCCc4ccccc4)c3)C2=S)cc1C(F)(F)F [Compound 163, 5-(5-(4-Fluoro-3-(3-phenylpropoxy)phenyl)-8-oxo-6-thioxo-5,7-diazaspiro[3.4]octan-7-yl)-3-(trifluoromethyl)picolinonitrile] | > 1000 nM | No (Agonist defined as a compound whose Emax in the ARVP16 DNA Binding Assay (Agonist mode) is >20x DMSO control)
N#Cc1ncc(N2C(=O)C3(CCC3)N(c3ccc(F)c(OCCN4CCOCC4)c3)C2=S)cc1C(F)(F)F [Compound 164, 5-(5-(4-Fluoro-3-(2-morpholinoethoxy)phenyl)-8-oxo-6-thioxo-5,7-diazaspiro[3.4]octan-7-yl)-3-(trifluoromethyl)picolinonitrile] | > 1000 nM | No (Agonist defined as a compound whose Emax in the ARVP16 DNA Binding Assay (Agonist mode) is >20x DMSO control)
N#Cc1ncc(N2C(=O)C3(CCC3)N(c3ccc(F)c(OCCCN4CCOCC4)c3)C2=S)cc1C(F)(F)F [Compound 165, 5-(5-(4-Fluoro-3-(3-morpholinopropoxy)phenyl)-8-oxo-6-thioxo-5,7-diazaspiro[3.4]octan-7-yl)-3-(trifluoromethyl)picolinonitrile] | > 1000 nM | No (Agonist defined as a compound whose Emax in the ARVP16 DNA Binding Assay (Agonist mode) is >20x DMSO control)
CN1CCN(CCOc2cc(N3C(=S)N(c4cnc(C#N)c(C(F)(F)F)c4)C(=O)C34CCC4)ccc2F)CC1 [Compound 166, 5-(5-(4-Fluoro-3-(2-(4-methylpiperazin-1-yl)ethoxy)phenyl)-8-oxo-6-thioxo-5,7-diazaspiro[3.4]octan-7-yl)-3-(trifluoromethyl)picolinonitrile] | > 1000 nM | No (Agonist defined as a compound whose Emax in the ARVP16 DNA Binding Assay (Agonist mode) is >20x DMSO control)
CN1CCN(CCCOc2cc(N3C(=S)N(c4cnc(C#N)c(C(F)(F)F)c4)C(=O)C34CCC4)ccc2F)CC1 [Compound 167, 5-(5-(4-Fluoro-3-(3-(4-methylpiperazin-1-yl)propoxy)phenyl)-8-oxo-6-thioxo-5,7-diazaspiro[3.4]octan-7-yl)-3-(trifluoromethyl)picolinonitrile] | > 1000 nM | No (Agonist defined as a compound whose Emax in the ARVP16 DNA Binding Assay (Agonist mode) is >20x DMSO control)
COCCOc1ccc(N2C(=S)N(c3cnc(C#N)c(C)c3)C(=O)C23CCC3)cc1F [Compound 168, 5-(5-(3-Fluoro-4-(2-methoxyethoxy)phenyl)-8-oxo-6-thioxo-5,7-diazaspiro[3.4]octan-7-yl)-3-methylpicolinonitrile] | < 1000 nM | No (Agonist defined as a compound whose Emax in the ARVP16 DNA Binding Assay (Agonist mode) is >20x DMSO control)
Cc1cc(N2C(=O)C3(CCC3)N(c3ccc(OCCc4ccccn4)c(F)c3)C2=S)cnc1C#N [Compound 169, 5-(5-(3-Fluoro-4-(2-(pyridin-2-yl)ethoxy)phenyl)-8-oxo-6-thioxo-5,7-diazaspiro[3.4]octan-7-yl)-3-methylpicolinonitrile] | < 1000 nM | No (Agonist defined as a compound whose Emax in the ARVP16 DNA Binding Assay (Agonist mode) is >20x DMSO control)
Cc1cc(N2C(=O)C3(CCC3)N(c3ccc(OCCN4CCN(C)CC4)c(F)c3)C2=S)cnc1C#N [Compound 170, 5-(5-(3-Fluoro-4-(2-(4-methylpiperazin-1-yl)ethoxy)phenyl)-8-oxo-6-thioxo-5,7-diazaspiro[3.4]octan-7-yl)-3-methylpicolinonitrile] | < 1000 nM | Yes (Agonist defined as a compound whose Emax in the ARVP16 DNA Binding Assay (Agonist mode) is >20x DMSO control)
N#Cc1ncc(N2C(=O)C3(CCC3)N(c3ccc(OCCN4CCSCC4)c(F)c3)C2=S)cc1C(F)(F)F [Compound 175, 5-(5-(3-Fluoro-4-(2-thiomorpholinoethoxy)phenyl)-8-oxo-6-thioxo-5,7-diazaspiro[3.4]octan-7-yl)-3-(trifluoromethyl)picolinonitrile] | < 1000 nM | No (Agonist defined as a compound whose Emax in the ARVP16 DNA Binding Assay (Agonist mode) is >20x DMSO control)
